Key:
Experiment in all cases: relative viability (nuclei count vs DMSO), 5 days (fraction); higher = more cells survive
[1] = compound: OCc1c[nH]c2ccccc12 [Indole-3-carbinol] + Nc1nc2[nH]cc(CCc3ccc(C(=O)N[C@@H](CCC(=O)O)C(=O)O)cc3)c2c(=O)[nH]1 [Pemetrexed] (partner 0.2 µM)
Summary of the method: (§1)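 Relative viability equals treated-well nuclei counts divided by vehicle-well nuclei counts. Counts came from 4× images of lung cancer cell lines grown in 1536-well plates for 5 days after pin-tool dosing on the day after seeding. Dosing used one drug alone or a fixed anchor-drug dose plus five library-drug doses (not always all listed) in √10 steps, and values are medians of duplicate plates.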

[2] = compound: OCc1c[nH]c2ccccc12 [Indole-3-carbinol] + NC(=O)Nc1cc(-c2cccc(F)c2)sc1C(=O)N[C@H]1CCCNC1 [AZD7762] (partner 0.2 µM)
Summary of the method: as §1

[3] = compound: OCc1c[nH]c2ccccc12 [Indole-3-carbinol] + CC(=O)c1c(C)c2cnc(Nc3ccc(N4CCNCC4)cn3)nc2n(C2CCCC2)c1=O [Palbociclib] (partner 0.5 µM)
Summary of the method: as §1

[4] = compound: OCc1c[nH]c2ccccc12 [Indole-3-carbinol] + Nc1ncn([C@H]2C[C@H](O)[C@@H](CO)O2)c(=O)n1 [Decitabine] (partner 2 µM)
Summary of the method: as §1

[5] = compound: OCc1c[nH]c2ccccc12 [Indole-3-carbinol] + CC(=O)Nc1cccc(-n2c(=O)n(C3CC3)c(=O)c3c(Nc4ccc(I)cc4F)n(C)c(=O)c(C)c32)c1 [Trametinib] (partner 0.02 µM)
Summary of the method: as §1

[6] = compound: OCc1c[nH]c2ccccc12 [Indole-3-carbinol] + O=C(CCCCCCC(=O)Nc1ccccc1)NO [Vorinostat] (partner 1 µM)
Summary of the method: as §1

[7] = compound: OCc1c[nH]c2ccccc12 [Indole-3-carbinol] + COc1cccc2cc(-c3nc([C@H]4CC[C@H](C(=O)O)CC4)n4ncnc(N)c34)[nH]c12 [OSI-027] (partner 0.5 µM)
Summary of the method: as §1

[8] = compound: OCc1c[nH]c2ccccc12 [Indole-3-carbinol] + Cc1cc(Nc2cc(N3CCN(C)CC3)nc(Sc3ccc(NC(=O)C4CC4)cc3)n2)n[nH]1 [Tozasertib] (partner 0.1 µM)
Summary of the method: as §1

[9] = compound: OCc1c[nH]c2ccccc12 [Indole-3-carbinol] + O=C(c1cc(Cc2n[nH]c(=O)c3ccccc23)ccc1F)N1CCN(C(=O)C2CC2)CC1 [Olaparib] (partner 8 µM)
Summary of the method: as §1

[10] = compound: OCc1c[nH]c2ccccc12 [Indole-3-carbinol]
Summary of the method: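 Viability was defined as treated-well nuclei divided by vehicle-well nuclei, with the median taken over replicate plates. Cells from lung cancer lines sat overnight at 37 °C in 1536-well plates, received five √10-spaced library-drug doses by pinning on vehicle-anchored plates, and grew 5 days without medium change before one-step fixation, permeabilisation and Hoechst staining, 4× imaging and MetaXpress nuclear counts. Only plates with control CV under 25% and at least one doubling were kept.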

[11] = compound: OCc1c[nH]c2ccccc12 [Indole-3-carbinol] + Cc1nc(Nc2ncc(C(=O)Nc3c(C)cccc3Cl)s2)cc(N2CCN(CCO)CC2)n1 [Dasatinib] (partner 0.075 µM)
Summary of the method: as §1

[12] = compound: OCc1c[nH]c2ccccc12 [Indole-3-carbinol] + CCNC(=O)c1noc(-c2cc(C(C)C)c(O)cc2O)c1-c1ccc(CN2CCOCC2)cc1 [Luminespib] (partner 0.01 µM)
Summary of the method: as §1

[13] = compound: OCc1c[nH]c2ccccc12 [Indole-3-carbinol] + COc1cc2c(Oc3ccc(NC(=O)C4(C(=O)Nc5ccc(F)cc5)CC4)cc3F)ccnc2cc1OCCCN1CCOCC1 [Foretinib] (partner 0.25 µM)
Summary of the method: as §1

[14] = compound: OCc1c[nH]c2ccccc12 [Indole-3-carbinol] + N=C(N)NC(=N)NCCc1ccccc1 [Phenformin] (partner 250 µM)
Summary of the method: as §1

NCI-H1648
relative viability ([1]; first compound 0.253 µM): 0.663 | relative viability ([1]; first compound 0.8 µM): 0.745 | relative viability ([1]; first compound 2.53 µM): 0.822 | relative viability ([1]; first compound 8 µM): 0.715 | relative viability ([2]; first compound 0.253 µM): 0.555 | relative viability ([2]; first compound 0.8 µM): 0.613 | relative viability ([2]; first compound 2.53 µM): 0.773 | relative viability ([2]; first compound 8 µM): 0.637 | relative viability ([3]; first compound 0.253 µM): 0.31 | relative viability ([3]; first compound 0.8 µM): 0.248 | relative viability ([3]; first compound 2.53 µM): 0.296 | relative viability ([3]; first compound 8 µM): 0.289 | relative viability ([4]; first compound 0.253 µM): 0.482 | relative viability ([4]; first compound 0.8 µM): 0.434 | relative viability ([4]; first compound 2.53 µM): 0.598 | relative viability ([4]; first compound 8 µM): 0.499 | relative viability ([5]; first compound 0.253 µM): 0.486 | relative viability ([5]; first compound 0.8 µM): 0.423 | relative viability ([5]; first compound 2.53 µM): 0.59 | relative viability ([5]; first compound 8 µM): 0.521 | relative viability ([6]; first compound 0.253 µM): 0.301 | relative viability ([6]; first compound 0.8 µM): 0.825 | relative viability ([6]; first compound 2.53 µM): 0.333 | relative viability ([6]; first compound 8 µM): 0.41 | relative viability ([7]; first compound 0.253 µM): 0.258 | relative viability ([7]; first compound 0.8 µM): 0.235 | relative viability ([7]; first compound 2.53 µM): 0.272 | relative viability ([7]; first compound 8 µM): 0.242 | relative viability ([8]; first compound 0.253 µM): 0.835 | relative viability ([8]; first compound 0.8 µM): 0.488 | relative viability ([8]; first compound 2.53 µM): 0.439 | relative viability ([8]; first compound 8 µM): 0.473 | relative viability ([9]; first compound 0.253 µM): 1.27 | relative viability ([9]; first compound 0.8 µM): 0.69 | relative viability ([9]; first compound 2.53 µM): 0.868 | relative viability ([9]; first compound 8 µM): 0.572 | relative viability ([10]; 0.253 µM): 1.07 | relative viability ([10]; 0.8 µM): 0.846 | relative viability ([10]; 2.53 µM): 0.911 | relative viability ([10]; 8 µM): 0.949

NCI-H2342
relative viability ([11]; first compound 0.253 µM): 0.355 | relative viability ([11]; first compound 0.8 µM): 0.323 | relative viability ([11]; first compound 2.53 µM): 0.317 | relative viability ([11]; first compound 8 µM): 0.285 | relative viability ([1]; first compound 0.253 µM): 0.757 | relative viability ([1]; first compound 0.8 µM): 0.738 | relative viability ([1]; first compound 2.53 µM): 0.751 | relative viability ([1]; first compound 8 µM): 0.742 | relative viability ([2]; first compound 0.253 µM): 0.576 | relative viability ([2]; first compound 0.8 µM): 0.455 | relative viability ([2]; first compound 2.53 µM): 0.456 | relative viability ([2]; first compound 8 µM): 0.453 | relative viability ([3]; first compound 0.253 µM): 0.516 | relative viability ([3]; first compound 0.8 µM): 0.516 | relative viability ([3]; first compound 2.53 µM): 0.498 | relative viability ([3]; first compound 8 µM): 0.535 | relative viability ([12]; first compound 0.253 µM): 0.867 | relative viability ([12]; first compound 0.8 µM): 0.759 | relative viability ([12]; first compound 2.53 µM): 0.752 | relative viability ([12]; first compound 8 µM): 0.74 | relative viability ([4]; first compound 0.253 µM): 0.822 | relative viability ([4]; first compound 0.8 µM): 0.743 | relative viability ([4]; first compound 2.53 µM): 0.765 | relative viability ([4]; first compound 8 µM): 0.765 | relative viability ([5]; first compound 0.253 µM): 0.824 | relative viability ([5]; first compound 0.8 µM): 0.931 | relative viability ([5]; first compound 2.53 µM): 0.866 | relative viability ([5]; first compound 8 µM): 0.764 | relative viability ([13]; first compound 0.253 µM): 1.12 | relative viability ([13]; first compound 0.8 µM): 1.04 | relative viability ([13]; first compound 2.53 µM): 1.06 | relative viability ([13]; first compound 8 µM): 0.999 | relative viability ([14]; first compound 0.253 µM): 0.617 | relative viability ([14]; first compound 0.8 µM): 0.608 | relative viability ([14]; first compound 2.53 µM): 0.572 | relative viability ([14]; first compound 8 µM): 0.516 | relative viability ([6]; first compound 0.253 µM): 0.802 | relative viability ([6]; first compound 0.8 µM): 0.743 | relative viability ([6]; first compound 2.53 µM): 0.903 | relative viability ([6]; first compound 8 µM): 0.712 | relative viability ([7]; first compound 0.253 µM): 0.605 | relative viability ([7]; first compound 0.8 µM): 0.585 | relative viability ([7]; first compound 2.53 µM): 0.569 | relative viability ([7]; first compound 8 µM): 0.572 | relative viability ([8]; first compound 0.253 µM): 0.516 | relative viability ([8]; first compound 0.8 µM): 0.575 | relative viability ([8]; first compound 2.53 µM): 0.453 | relative viability ([8]; first compound 8 µM): 0.405 | relative viability ([9]; first compound 0.253 µM): 0.452 | relative viability ([9]; first compound 0.8 µM): 0.447 | relative viability ([9]; first compound 2.53 µM): 0.508 | relative viability ([9]; first compound 8 µM): 0.512 | relative viability ([10]; 0.253 µM): 1.08 | relative viability ([10]; 0.8 µM): 0.907 | relative viability ([10]; 2.53 µM): 1.01 | relative viability ([10]; 8 µM): 1.02

— the supplement of paper PMC10307832
